Laboratory results from patent US20250145665A1, “MACROCYCLIC PEPTIDES USEFUL AS MODULATORS OF TNF ALPHA” (Bristol-Myers Squibb Company, priority 2023, published 2025).
Starred links: 1 amine or outer side, 2 acyl side, 3 side chain; linkers in the order of their positions; H or OH if unused. Positions of bridges follow the written chain, without caps; N, C: chain ends. Non-standard residues stand in square brackets, D forms with d. Residues, ends and D or L forms follow the SMILES beside them. Bip(4'-COOH) = N[C@@H](Cc1ccc(-c2ccc(C(=O)O)cc2)cc1)C(=O)O; Bip(4'-NHAc) = CC(=O)Nc1ccc(-c2ccc(C[C@H](N)C(=O)O)cc2)cc1; Phe(3-CH2NH2) = O=C([C@H](Cc1cccc(CN[*:3])c1)N[*:1])[*:2]; Ala(morpholin-4-yl) = N[C@@H](CN1CCOCC1)C(=O)O; Bip = N[C@@H](Cc1ccc(-c2ccccc2)cc1)C(=O)O; Morpholine(3S-CO) = O=C(O)[C@@H]1COCCN1; Val(3-OH) = CC(C)(O)[C@H](N)C(=O)O; hArg = N=C(N)NCCCC[C@H](N)C(=O)O; 2Pal = N[C@@H](Cc1ccccn1)C(=O)O; Pip = O=C(O)[C@@H]1CCCCN1; Nle = CCCC[C@H](N)C(=O)O; Aze = O=C(O)[C@@H]1CCN1; Abu = CC[C@H](N)C(=O)O; Sar = CNCC(=O)O

Molecular target: TNFα (Homo sapiens, UniProt P01375)
Experiment: TNF-Induced HEK-Blue Assay
Assay type: cell-based
Conditions: HEK-Blue-CD40L cells, NF-kB-driven secreted alkaline phosphatase reporter; TNFα 0.5 ng/ml; 18 h; read-out: TNF induced HEK-Blue assay IC50 value
Experimental: TNFα (final concentration 0.5 ng/ml) or CD40L (final concentration 30 ng/ml) in assay buffer [DMEM, 4.5 g/l glucose (Gibco, Cat. 21063-029), 10% FBS (Sigma, F4135), 1% Penicillin-Streptomycin (Gibco, Cat. 15140-122), 1% Anti-Anti (Gibco, Cat. 15240-112) and 2 mM L-glutamine (Gibco, Cat. 25030-081)] was then added to the assay plate. After a 30 minute pre-incubation at 37° C. and 5% CO2, HEK-Blue™-CD40L cells (INVIVOGEN, Cat. Code hkb-cd40) containing a NF-kB-driven secreted alkaline phosphatase reporter gene were seeded into the assay plate at a density of 20,000 cells per well. This plate was then incubated for 18 h at 37° C. and 5% CO2. Secreted alkaline phosphatase expression was measured using QUANTI-Blue™ (INVIVOGEN, Cat. Code rep-qb1) according to manufacturer's specifications and the assay plate was read on a PerkinElmer Envision at 620 nm.
IC50 values were determined after correcting for background [(sample read-mean of low control)/(mean of high control-mean of low control)] where by the low control is DMSO without stimulation and high control is DMSO with stimulation.

Sequence of TNFα (P01375 77-233 limits assumed): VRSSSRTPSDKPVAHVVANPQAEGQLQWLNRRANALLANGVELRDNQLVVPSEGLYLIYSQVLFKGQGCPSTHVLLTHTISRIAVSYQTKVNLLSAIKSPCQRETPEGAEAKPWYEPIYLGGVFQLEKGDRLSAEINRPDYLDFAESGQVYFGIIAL

SMILES	IC50
CC(C)C[C@@H]1NC(=O)[C@H](CCCCNC(=N)N)NC(=O)[C@H](C(C)C)NC(=O)[C@@H]2CCCN2C(=O)[C@H](C(C)C)NC(=O)[C@@H](CCCNC(=N)N)NC(=O)[C@H](CC(=O)O)NC(=O)[C@H](Cc2ccc(O)cc2)NC(=O)CN(C)C(=O)[C@H](Cc2ccc(-c3ccccc3)cc2)NC(=O)[C@H](Cc2ccc(-c3ccccc3)cc2)NC(=O)[C@H](CN2CCOCC2)NC(=O)CSC[C@@H](C(=O)NCC(N)=O)NC1=O [Example 159] ({CH2CO}-[Ala(morpholin-4-yl)][Bip][Bip][Sar]YD[dR]VPV[hArg]LCG-NH2; thioether N-13)	< 50 nM
CC(=O)Nc1ccc(-c2ccc(C[C@@H]3NC(=O)[C@H](Cc4ccc(-c5ccccc5)cc4)NC(=O)[C@H](CN4CCOCC4)NC(=O)CSC[C@@H](C(=O)NCC(N)=O)NC(=O)[C@H](CC(C)C)NC(=O)[C@H](CCCNC(=N)N)NC(=O)[C@H](C(C)(C)O)NC(=O)[C@@H]4CCCN4C(=O)[C@H](C(C)C)NC(=O)[C@@H](CCCNC(=N)N)NC(=O)[C@H](CC(=O)O)NC(=O)[C@@H]4CCCN4C(=O)CN(C)C3=O)cc2)cc1 [Example 160] ({CH2CO}-[Ala(morpholin-4-yl)][Bip][Bip(4'-NHAc)][Sar]PD[dR]VP[Val(3-OH)]RLCG-NH2; thioether N-13)	50 to 200 nM
CC[C@@H]1NC(=O)[C@@H]2CCCN2C(=O)[C@H](C(C)C)NC(=O)[C@@H](CCCNC(=N)N)NC(=O)[C@H](CC(=O)O)NC(=O)[C@H](Cc2ccc(O)cc2)NC(=O)CN(C)C(=O)[C@H](Cc2ccc(-c3ccccc3)cc2)NC(=O)[C@H](Cc2ccc(-c3ccccc3)cc2)NC(=O)[C@H](CN2CCOCC2)NC(=O)CSC[C@@H](C(=O)NCC(N)=O)NC(=O)[C@H](CC(C)C)NC(=O)[C@H](Cc2ccc(O)cc2)NC1=O [Example 161] ({CH2CO}-[Ala(morpholin-4-yl)][Bip][Bip][Sar]YD[dR]VP[Abu]YLCG-NH2; thioether N-13)	50 to 200 nM
CC(C)C[C@@H]1NC(=O)[C@H](Cc2ccc(O)cc2)NC(=O)[C@H](C)NC(=O)[C@@H]2CCCN2C(=O)[C@H](C(C)C)NC(=O)[C@@H](CCCNC(=N)N)NC(=O)[C@H](CC(=O)O)NC(=O)[C@H](Cc2ccc(O)cc2)NC(=O)CN(C)C(=O)[C@H](Cc2ccc(-c3ccccc3)cc2)NC(=O)[C@H](Cc2ccc(-c3ccccc3)cc2)NC(=O)[C@H](CN2CCOCC2)NC(=O)CSC[C@@H](C(=O)NCC(N)=O)NC1=O [Example 162] ({CH2CO}-[Ala(morpholin-4-yl)][Bip][Bip][Sar]YD[dR]VPAYLCG-NH2; thioether N-13)	50 to 200 nM
CCCC[C@@H]1NC(=O)[C@@H]2CCCN2C(=O)[C@H](C(C)C)NC(=O)[C@@H](CCCNC(=N)N)NC(=O)[C@H](CC(=O)O)NC(=O)[C@H](Cc2ccc(O)cc2)NC(=O)CN(C)C(=O)[C@H](Cc2ccc(-c3ccccc3)cc2)NC(=O)[C@H](Cc2ccc(-c3ccccc3)cc2)NC(=O)[C@H](CN2CCOCC2)NC(=O)CSC[C@@H](C(=O)NCC(N)=O)NC(=O)[C@H](CC(C)C)NC(=O)[C@H](Cc2ccc(O)cc2)NC1=O [Example 163] ({CH2CO}-[Ala(morpholin-4-yl)][Bip][Bip][Sar]YD[dR]VP[Nle]YLCG-NH2; thioether N-13)	200 to 2000 nM
CC(=O)Nc1ccc(-c2ccc(C[C@@H]3NC(=O)[C@H](Cc4ccc(-c5ccc(C(=O)O)cc5)cc4)NC(=O)[C@H](CN4CCOCC4)NC(=O)CSC[C@@H](C(=O)NCC(N)=O)NC(=O)[C@H](CC(C)C)NC(=O)[C@H](Cc4ccc(O)cc4)NC(=O)[C@H](C(C)C)NC(=O)[C@@H]4CCCN4C(=O)[C@H](C(C)C)NC(=O)[C@@H](CCCNC(=N)N)NC(=O)[C@H](CC(=O)O)NC(=O)[C@H](Cc4ccc(O)cc4)NC(=O)CN(C)C3=O)cc2)cc1 [Example 164] ({CH2CO}-[Ala(morpholin-4-yl)][Bip(4'-COOH)][Bip(4'-NHAc)][Sar]YD[dR]VPVYLCG-NH2; thioether N-13)	< 50 nM
CC(=O)Nc1ccc(-c2ccc(C[C@@H]3NC(=O)[C@H](Cc4ccc(-c5ccc(C(=O)O)cc5)cc4)NC(=O)[C@H](CN4CCOCC4)NC(=O)CSC[C@@H](C(=O)NCC(N)=O)NC(=O)[C@H](CC(C)C)NC(=O)[C@H](CCCNC(=N)N)NC(=O)[C@H](C(C)C)NC(=O)[C@@H]4CCCN4C(=O)[C@H](C(C)C)NC(=O)[C@@H](CCCNC(=N)N)NC(=O)[C@H](CC(=O)O)NC(=O)[C@@H]4CCCN4C(=O)CN(C)C3=O)cc2)cc1 [Example 165] ({CH2CO}-[Ala(morpholin-4-yl)][Bip(4'-COOH)][Bip(4'-NHAc)][Sar]PD[dR]VPVRLCG-NH2; thioether N-13)	< 50 nM
CC(=O)Nc1ccc(-c2ccc(C[C@@H]3NC(=O)[C@H](Cc4ccc(-c5ccc(C(=O)O)cc5)cc4)NC(=O)[C@H](CN4CCOCC4)NC(=O)CSC[C@@H](C(=O)NCC(N)=O)NC(=O)[C@H](CC(C)C)NC(=O)[C@H](Cc4ccc(O)cc4)NC(=O)[C@H](C(C)C)NC(=O)[C@@H]4CCN4C(=O)[C@H](C(C)C)NC(=O)[C@@H](CCCNC(=N)N)NC(=O)[C@H](CC(=O)O)NC(=O)[C@H](Cc4ccc(O)cc4)NC(=O)CN(C)C3=O)cc2)cc1 [Example 166] ({CH2CO}-[Ala(morpholin-4-yl)][Bip(4'-COOH)][Bip(4'-NHAc)][Sar]YD[dR]V[Aze]VYLCG-NH2; thioether N-13)	< 50 nM
CC(=O)Nc1ccc(-c2ccc(C[C@@H]3NC(=O)[C@H](Cc4ccc(-c5ccc(C(=O)O)cc5)cc4)NC(=O)[C@H](CN4CCOCC4)NC(=O)CSC[C@@H](C(=O)NCC(N)=O)NC(=O)[C@H](CC(C)C)NC(=O)[C@H](Cc4ccc(O)cc4)NC(=O)[C@H](C(C)C)NC(=O)[C@@H]4COCCN4C(=O)[C@H](C(C)C)NC(=O)[C@@H](CCCNC(=N)N)NC(=O)[C@H](CC(=O)O)NC(=O)[C@H](Cc4ccc(O)cc4)NC(=O)CN(C)C3=O)cc2)cc1 [Example 167] ({CH2CO}-[Ala(morpholin-4-yl)][Bip(4'-COOH)][Bip(4'-NHAc)][Sar]YD[dR]V[Morpholine(3S-CO)]VYLCG-NH2; thioether N-13)	50 to 200 nM
CC(=O)Nc1ccc(-c2ccc(C[C@@H]3NC(=O)[C@H](Cc4ccc(-c5ccc(C(=O)O)cc5)cc4)NC(=O)[C@H](CN4CCOCC4)NC(=O)CSC[C@@H](C(=O)NCC(N)=O)NC(=O)[C@H](CC(C)C)NC(=O)[C@H](Cc4ccc(O)cc4)NC(=O)[C@H](C(C)C)NC(=O)[C@@H]4CCCCN4C(=O)[C@H](C(C)C)NC(=O)[C@@H](CCCNC(=N)N)NC(=O)[C@H](CC(=O)O)NC(=O)[C@H](Cc4ccc(O)cc4)NC(=O)CN(C)C3=O)cc2)cc1 [Example 168] ({CH2CO}-[Ala(morpholin-4-yl)][Bip(4'-COOH)][Bip(4'-NHAc)][Sar]YD[dR]V[Pip]VYLCG-NH2; thioether N-13)	< 50 nM
CC(=O)Nc1ccc(-c2ccc(C[C@@H]3NC(=O)[C@H](Cc4ccc(-c5ccccc5)cc4)NC(=O)[C@H](CN4CCOCC4)NC(=O)CSC[C@@H](C(=O)N[C@@H](CCCCN)C(=O)O)NC(=O)[C@H](CC(C)C)NC(=O)[C@H](CCCNC(=N)N)NC(=O)[C@H](C(C)C)NC(=O)[C@@H]4CCCN4C(=O)[C@H](C(C)C)NC(=O)[C@@H](CCCNC(=N)N)NC(=O)[C@H](CC(=O)O)NC(=O)[C@@H]4CCCN4C(=O)CN(C)C3=O)cc2)cc1 [Example 169] ({CH2CO}-[Ala(morpholin-4-yl)][Bip][Bip(4'-NHAc)][Sar]PD[dR]VPVRLCK-OH; thioether N-13)	< 50 nM
CC(=O)Nc1ccc(-c2ccc(C[C@@H]3NC(=O)[C@H](Cc4ccc(-c5ccccc5)cc4)NC(=O)[C@H](CN4CCOCC4)NC(=O)CSC[C@@H](C(=O)NCC(N)=O)NC(=O)[C@H](CC(C)C)NC(=O)[C@H](Cc4ccc(O)cc4)NC(=O)[C@H](C(C)C)NC(=O)[C@@H]4CCN4C(=O)[C@H](C(C)C)NC(=O)[C@@H](CCCNC(=N)N)NC(=O)[C@H](CC(=O)O)NC(=O)[C@H](Cc4ccccn4)NC(=O)CN(C)C3=O)cc2)cc1 [Example 170] ({CH2CO}-[Ala(morpholin-4-yl)][Bip][Bip(4'-NHAc)][Sar][2Pal]D[dR]V[Aze]VYLCG-NH2; thioether N-13)	< 50 nM
CC(=O)Nc1ccc(-c2ccc(C[C@@H]3NC(=O)[C@H](Cc4ccc(-c5ccccc5)cc4)NC(=O)[C@H](CN4CCOCC4)NC(=O)CSC[C@@H](C(=O)NCC(N)=O)NC(=O)[C@H](CC(C)C)NC(=O)[C@H](Cc4cccc(CN)c4)NC(=O)[C@H](C(C)C)NC(=O)[C@@H]4CCCN4C(=O)[C@H](C(C)C)NC(=O)[C@@H](CCCNC(=N)N)NC(=O)[C@H](CC(=O)O)NC(=O)[C@H](Cc4ccccn4)NC(=O)CN(C)C3=O)cc2)cc1 [Example 171] ({CH2CO}-[Ala(morpholin-4-yl)][Bip][Bip(4'-NHAc)][Sar][2Pal]D[dR]VPV[Phe(3-CH2NH2)]LCG-NH2; thioether N-13)	< 50 nM
CC(=O)Nc1ccc(-c2ccc(C[C@@H]3NC(=O)[C@H](Cc4ccc(-c5ccccc5)cc4)NC(=O)[C@H](CN4CCOCC4)NC(=O)CSC[C@@H](C(=O)NCC(N)=O)NC(=O)[C@H](CC(C)C)NC(=O)[C@H](Cc4ccccn4)NC(=O)[C@H](C(C)C)NC(=O)[C@@H]4CCCN4C(=O)[C@H](C(C)C)NC(=O)[C@@H](CCCNC(=N)N)NC(=O)[C@H](CC(=O)O)NC(=O)[C@H](Cc4ccccn4)NC(=O)CN(C)C3=O)cc2)cc1 [Example 172] ({CH2CO}-[Ala(morpholin-4-yl)][Bip][Bip(4'-NHAc)][Sar][2Pal]D[dR]VPV[2Pal]LCG-NH2; thioether N-13)	< 50 nM
CC(=O)Nc1ccc(-c2ccc(C[C@@H]3NC(=O)[C@H](Cc4ccc(-c5ccccc5)cc4)NC(=O)[C@H](CN4CCOCC4)NC(=O)CSC[C@@H](C(=O)NCC(N)=O)NC(=O)[C@H](CC(C)C)NC(=O)[C@H](Cc4ccc(O)cc4)NC(=O)[C@H](C(C)C)NC(=O)[C@@H]4CCCN4C(=O)[C@H](CC(N)=O)NC(=O)[C@@H](CCCNC(=N)N)NC(=O)[C@H](CC(=O)O)NC(=O)[C@H](Cc4ccccn4)NC(=O)CN(C)C3=O)cc2)cc1 [Example 173] ({CH2CO}-[Ala(morpholin-4-yl)][Bip][Bip(4'-NHAc)][Sar][2Pal]D[dR]NPVYLCG-NH2; thioether N-13)	50 to 200 nM
